Laboratory results: publication PMC11050424, “Antibacterial and Hemolytic Activity of Antimicrobial Hydrogels Utilizing Immobilized Antimicrobial Peptides” (International Journal of Molecular Sciences, 2024)
Converted amounts (≈) assume the structure as drawn. Residues, ends and D or L forms follow the SMILES beside them.

Experiments:
[1] = test system: S. aureus (CCUG 10778); format: cell-based, Staphylococcus aureus
Protocol: (§1) The minimum inhibitory concentration protocol was adapted from [42], with the main change in volume for easier observation. In short, the protocol was as follows: a single colony of Staphylococcus aureus (CCUG 10778) or Pseudomonas aeruginosa (CCUG 56489) was inoculated in 4 mL of TSB and cultivated at 37 °C until OD ~ 0.7 which corresponds to a concentration of roughly 10^9 CFU mL^−1. This was then diluted 1000 times to a concentration of roughly 10^6 CFU mL^−1 using Mueller Hinton broth (MH broth). In the meantime, the different peptides were weighed in separate 15 mL falcon tubes and dissolved in MH broth for a concentration of 512 µM. Serial dilution by a factor of 2 was then performed, with MH broth, in a 24-well plate, leaving 500 µL of solution in each well. Then, 500 µL of the bacterial solution was added to each well resulting in a starting concentration of 5 × 10^5 CFU mL^−1. […] The plates were cultivated overnight (16–18 h) and the minimum inhibitory concentration was determined for the lowest concentration where no visible growth was observed. Three separate experiments were performed for all peptides and bacteria.

[2] = test system: P. aeruginosa (CCUG 56489); format: cell-based, Pseudomonas aeruginosa
Protocol: as §1

[3] = test system: defibrinated horse blood; format: cell-based; conditions: red cells of horse, 1 h
Protocol: The use of hemolysis assays to study AMPs is a common implementation and quite standardized with small variations. Serial dilutions of the free AMPs were prepared in PBS to obtain 100 µL in Eppendorf tubes of the concentrations: 2, 4, 8, 16, 32, 64, 128, and 256 µM. A total of 100 µL of just PBS was added to an Eppendorf tube to serve as a negative control, and 100 µL of 0.2% Triton X-100 was added to an Eppendorf tube to serve as a positive control. The functionalized 8 mm Ø hydrogels as well as non-functionalized control hydrogels were placed in Eppendorf tubes together with 0.1, 0.2, 0.3 mL, or 0.4 mL PBS, two samples per type. For each volume, a set of negative control (PBS) and positive control (0.2% Triton X-100) was included using a matching volume. The blood used for the study was defibrinated horse blood from Thermo Fisher Scientific. The blood was placed in a 15 mL falcon tube and centrifuged at 4 °C for 10 min at 1000× g. The supernatant was discarded, and the erythrocytes were resuspended in 4 °C PBS and again centrifuged and the supernatant was removed. […]
The Eppendorf tubes were placed in an incubator at 37 °C for 1 h and the tubes were rotated 3 times every 15 min to limit sedimentation of the red blood cells. […] The absorbance was read at 540 nm using a Multiskan GO from Thermo Fisher Scientific. The rate of hemolysis was determined by Equation (2). […]

| SMILES | MIC, S. aureus [1] [µM] | MIC, P. aeruginosa [2] [µM] | Hemolysis at corresponding MIC values [3] | Hemolysis at 8–16 µM (observed MIC values against P. aeruginosa) [3]; 16 |
| --- | --- | --- | --- | --- |
| CC[C@H](C)[C@H](N)C(=O)N[C@@H](CC(C)C)C(=O)N[C@@H](CCCNC(=N)N)C(=O)N[C@@H](Cc1c[nH]c2ccccc12)C(=O)N1CCC[C@H]1C(=O)N[C@@H](Cc1c[nH]c2ccccc12)C(=O)N[C@@H](Cc1c[nH]c2ccccc12)C(=O)N1CCC[C@H]1C(=O)N[C@@H](Cc1c[nH]c2ccccc12)C(=O)N[C@@H](CCCNC(=N)N)C(=O)N[C@@H](CCCNC(=N)N)C(=O)N[C@@H](CCCCN)C(N)=O [Omiganan, reference compound] (H-ILRWPWWPWRRK-NH2) | 4 to 8 | 32 (≈ 56.9 µg/mL) |  |  |
| CC[C@H](C)[C@H](NC(=O)CNC(=O)[C@H](CCCNC(=N)N)NC(=O)[C@H](Cc1ccccc1)NC(=O)[C@@H](NC(=O)[C@H](Cc1c[nH]cn1)NC(=O)[C@H](Cc1c[nH]cn1)NC(=O)[C@H](Cc1ccccc1)NC(=O)[C@@H](N)Cc1ccccc1)[C@@H](C)CC)C(=O)N[C@H](C(=O)N[C@@H](Cc1c[nH]cn1)C(=O)N[C@H](C(=O)NCC(=O)N[C@@H](CCCCN)C(=O)N[C@H](C(=O)N[C@H](C(=O)N[C@@H](Cc1c[nH]cn1)C(=O)N[C@@H](CCCNC(=N)N)C(=O)N[C@@H](CC(C)C)C(=O)N[C@H](C(=O)N[C@H](C(=O)NCC(N)=O)[C@@H](C)O)C(C)C)[C@@H](C)CC)[C@@H](C)O)C(C)C)C(C)C [Piscidin 1, reference compound] (H-FFHHIFRGIVHVGKTIHRLVTG-NH2) | 1 to 2 | 8 to 16 |  | 60–100% |
| N=C(N)NCCC[C@H](NC(=O)[C@@H](N)CCCNC(=N)N)C(=O)N1CCC[C@H]1C(=O)N[C@@H](CCCNC(=N)N)C(=O)N1CCC[C@H]1C(=O)N[C@@H](CCCNC(=N)N)C(=O)N1CCC[C@H]1C(=O)N[C@@H](CCCNC(=N)N)C(=O)N1CCC[C@H]1C(=O)N[C@@H](Cc1c[nH]c2ccccc12)C(=O)N[C@@H](Cc1c[nH]c2ccccc12)C(=O)N[C@@H](Cc1c[nH]c2ccccc12)C(=O)N[C@@H](Cc1c[nH]c2ccccc12)C(=O)N[C@@H](Cc1c[nH]c2ccccc12)C(N)=O [R9W5] (H-RRPRPRPRPWWWWW-NH2) | 16 (≈ 33.9 µg/mL) | 32 to 64 |  |  |

Now from value to compound, other results behind:

| MIC, S. aureus [1] [µM] | MIC, P. aeruginosa [2] [µM] | SMILES | Hemolysis at corresponding MIC values [3] | Hemolysis at 8–16 µM (observed MIC values against P. aeruginosa) [3]; 16 |
| --- | --- | --- | --- | --- |
| 8 (≈ 15.5 µg/mL) | 16 (≈ 30.9 µg/mL) | N=C(N)NCCC[C@H](NC(=O)[C@@H](N)CCCNC(=N)N)C(=O)N1CCC[C@H]1C(=O)N[C@@H](CCCNC(=N)N)C(=O)N1CCC[C@H]1C(=O)N[C@@H](CCCNC(=N)N)C(=O)N1CCC[C@H]1C(=O)N[C@@H](CCCNC(=N)N)C(=O)N1CCC[C@H]1C(=O)N[C@@H](Cc1c[nH]c2ccccc12)C(=O)N[C@@H](Cc1c[nH]c2ccccc12)C(=O)N[C@@H](Cc1c[nH]c2ccccc12)C(=O)N[C@@H](Cc1c[nH]c2ccccc12)C(N)=O [R9W4] (H-RRPRPRPRPWWWW-NH2) | below 20% |  |
| 8 to 16 | 16 to 64 | N=C(N)NCCC[C@H](NC(=O)[C@@H]1CCCN1C(=O)[C@H](CCCNC(=N)N)NC(=O)[C@@H]1CCCN1C(=O)[C@H](CCCNC(=N)N)NC(=O)[C@@H]1CCCN1C(=O)[C@H](CCCCN)NC(=O)[C@@H](N)CCCCN)C(=O)N1CCC[C@H]1C(=O)N[C@@H](Cc1c[nH]c2ccccc12)C(=O)N[C@@H](Cc1c[nH]c2ccccc12)C(=O)N[C@@H](Cc1c[nH]c2ccccc12)C(=O)N[C@@H](Cc1c[nH]c2ccccc12)C(N)=O [KR9W4] (H-KKPRPRPRPWWWW-NH2) |  |  |
|  | 64 to 128 | NCCCC[C@H](NC(=O)[C@@H](N)CCCCN)C(=O)N1CCC[C@H]1C(=O)N[C@@H](CCCCN)C(=O)N1CCC[C@H]1C(=O)N[C@@H](CCCCN)C(=O)N1CCC[C@H]1C(=O)N[C@@H](CCCCN)C(=O)N1CCC[C@H]1C(=O)N[C@@H](Cc1c[nH]c2ccccc12)C(=O)N[C@@H](Cc1c[nH]c2ccccc12)C(=O)N[C@@H](Cc1c[nH]c2ccccc12)C(=O)N[C@@H](Cc1c[nH]c2ccccc12)C(N)=O [K9W4] (H-KKPKPKPKPWWWW-NH2) |  |  |
